Experimental findings from ChEMBL document CHEMBL3352420, “Discovery of 2-pyridylureas as glucokinase activators” (J Med Chem, 2014) are described below.

Data set [1] addresses T1, Hexokinase-4 (Homo sapiens, UniProt P35557).
T1 sequence (P35557 whole entry): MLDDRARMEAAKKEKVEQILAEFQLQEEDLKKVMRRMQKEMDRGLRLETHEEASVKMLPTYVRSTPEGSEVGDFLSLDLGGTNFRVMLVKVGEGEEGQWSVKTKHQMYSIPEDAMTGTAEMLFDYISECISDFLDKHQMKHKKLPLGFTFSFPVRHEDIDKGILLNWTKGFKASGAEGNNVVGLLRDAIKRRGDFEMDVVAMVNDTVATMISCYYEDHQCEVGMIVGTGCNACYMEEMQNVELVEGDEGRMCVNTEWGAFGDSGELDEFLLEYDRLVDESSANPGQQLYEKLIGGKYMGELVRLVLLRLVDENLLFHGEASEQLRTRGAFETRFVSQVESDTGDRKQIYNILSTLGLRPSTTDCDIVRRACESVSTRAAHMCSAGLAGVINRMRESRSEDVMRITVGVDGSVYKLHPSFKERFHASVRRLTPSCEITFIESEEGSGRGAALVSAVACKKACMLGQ
Kind of data set: Activation of purified human glucokinase isoform 3 (13 to 466 aa) using 5 mM glucose by spectrophotometry in presence of NAD+ and glucose 6-phosphate dehydrogenase in presence of 4% HSA.

Data set [2] deals with T1, Hexokinase-4. Kind of data set: Activation of purified human glucokinase isoform 3 (13 to 466 aa) using 5 mM glucose by spectrophotometry in presence of NAD+ and glucose 6-phosphate dehydrogenase.
The nature of data set [3]: Extraction ratio in human liver microsomes at 1 uM up to 20 mins by LC-MS/MS analysis. The class given is ADME. The note with it: read-out: ERH. For orientation: Liver microsomes are vesicles of endoplasmic reticulum, rich in cytochrome P450 enzymes.
The nature of data set [4]: Extraction ratio in mouse liver microsomes at 1 uM up to 20 mins by LC-MS/MS analysis. In kind it is ADME. To be noted: read-out: ERH.

In general, EC50 refers to the concentration giving half of the maximal effect.

Take `CCc1ncccc1Oc1cc(Sc2ccccn2)cnc1NC=O`: the concentration giving a half-maximal response (EC50) in data set [1] (read-out: EC50) was found to be 41400 nM; in data set [2], 13200 nM.

For the compound `CCc1ncccc1Oc1cc(Sc2ccccn2)cnc1NC(C)=O`, the figures for the EC50 entry in data set [1] and in data set [2] were “Not Active” and > 50000 nM, respectively.

As for `CCOC(=O)Nc1ncc(Sc2ccccn2)cc1Oc1cccnc1CC`, the EC50 result in data set [1] is “Not Active”; in data set [2], > 50000 nM.

Turning to `CCNC(=O)Nc1ncc(Sc2ccccn2)cc1Oc1cccnc1CC`, the EC50 in data set [1] (read-out: EC50) was 547 nM; in data set [2] it was 203 nM.

In the case of `CCc1ncccc1Oc1cc(Sc2ccccn2)cnc1NC(=O)NC`, the hepatic extraction ratio at 20 min, 1 µM in data set [3] was found to be 0.75; in data set [4] it was 0.85. Further, the values for the EC50 in data set [1] (read-out: EC50) and in data set [2] were 231 nM and 88 nM, respectively.

Regarding `CCc1ncccc1Oc1cc(Sc2ccccn2)cnc1NC(N)=O`, the concentration for a half-maximal effect (EC50) in data set [1] (read-out: EC50) stood at 4480 nM; in data set [2] it was 1730 nM.

`CCc1ncccc1Oc1cc(Sc2ccccn2)cnc1NC(=O)NC(C)C`: the figures for the 50% effective concentration (EC50) result in data set [1] and in data set [2] were “Not Active” and > 50000 nM, respectively.

Regarding `CCc1ncccc1Oc1cc(Sc2ccccn2)cnc1NC(=O)NCCO`, the half-maximal effective concentration (EC50) in data set [1] (read-out: EC50) was 2840 nM; in data set [2], 2120 nM.

Turning to `CCc1ncccc1Oc1cc(Sc2ccccn2)cnc1NC(=O)NCc1ccccn1`, the EC50 came out at 3990 nM in data set [1] (read-out: EC50) and 1620 nM in data set [2].

As for `CCc1ncccc1Oc1cc(Sc2ccccn2)cnc1NC(=O)NCc1cccnc1`, the EC50 in data set [1] (read-out: EC50) is 1970 nM; in data set [2] it was 758 nM.

As for `CCc1ncccc1Oc1cc(Sc2ccccn2)cnc1NC(=O)NCc1ccncc1`, the EC50 was 1160 nM in data set [1] (read-out: EC50) and 952 nM in data set [2].

On to `CCc1ncccc1Oc1cc(Sc2ccccn2)cnc1NC(=O)NCc1ccccc1O`, for which the EC50 in data set [1] (read-out: EC50) came out at 5850 nM; in data set [2], 393 nM.

On to `CCc1ncccc1Oc1cc(Sc2ccccn2)cnc1NC(=O)NCc1cccc(O)c1`, for which the EC50 in data set [1] (read-out: EC50) was determined as 2830 nM; in data set [2] it was 276 nM.
